The subject of one assay is Rat fibroblasts (CREF). As to the kind of experiment: Peg3 promoter luciferase inhibitors, potency, dose response, cell-based, HeLa, CREF/GAPDH counter-screen panel (AID 624167). The note with it: CREF/GAPDH counter-screens.
Assay [1] deals with PEG-3. Described as above. The note with it: HeLa PEG-Prom luciferase reporter, overnight, CREF/GAPDH counter-screens.
Assay in assay [2]: as above
Particulars: CREF/GAPDH counter-screens; GAPDH; mean of runs. (In general: Counterscreens check selectivity or assay interference.)

For a further assay, the system named is GAPDH. The description is as above. Particulars: CREF/GAPDH counter-screens.
Assay [3] deals with PEG-3 (UniProt Q6IN02). Described as above. Particulars: HeLa PEG-Prom luciferase reporter, overnight, CREF/GAPDH counter-screens, mean of runs. On the technique in general: Reporter assays use an easily measured gene product as a stand-in for the process of interest.
Chain of PEG-3 (UniProt Q6IN02) (Q6IN02 whole entry, looked up): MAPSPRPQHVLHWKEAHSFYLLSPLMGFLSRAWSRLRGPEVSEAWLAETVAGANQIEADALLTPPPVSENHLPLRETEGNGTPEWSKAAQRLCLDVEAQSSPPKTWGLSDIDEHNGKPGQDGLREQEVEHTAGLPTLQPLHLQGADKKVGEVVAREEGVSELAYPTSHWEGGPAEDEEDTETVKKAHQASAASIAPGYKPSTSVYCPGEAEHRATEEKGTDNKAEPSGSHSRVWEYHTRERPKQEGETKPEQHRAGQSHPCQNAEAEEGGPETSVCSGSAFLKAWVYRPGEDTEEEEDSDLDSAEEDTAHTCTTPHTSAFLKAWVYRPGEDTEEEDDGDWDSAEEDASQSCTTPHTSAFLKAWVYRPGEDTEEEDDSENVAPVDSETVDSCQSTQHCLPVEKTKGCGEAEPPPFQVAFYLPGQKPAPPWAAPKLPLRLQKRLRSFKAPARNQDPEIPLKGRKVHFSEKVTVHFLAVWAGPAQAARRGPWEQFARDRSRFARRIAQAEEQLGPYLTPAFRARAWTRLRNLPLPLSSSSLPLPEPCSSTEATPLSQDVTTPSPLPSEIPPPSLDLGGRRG
Where [4] appears, read: run 1, dose range 1, individual replicate IC50 per panel.
The mark [5] stands for this setting: run 2, dose range 1, individual replicate IC50 per panel.

In PubChem BioAssay AID624167 (Sanford-Burnham Center for Chemical Genomics, 2012) one finds IC50 data, which are given here for 17 compounds.

The source made the active and inactive calls.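 How the source made its calls: active means mean IC50 for reducing PEG3 promoter reporter signal at or below a set limit, with IC50 above the limit in both counter screens; inactive means the rest, including counter screen hits.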 Where only a bound is given, the exact number is not on record here.

Take `CCCCCCCn1c(=N)n(CC(=O)c2ccco2)c2ccccc21`: the IC50 is 30.7 µM with Rat fibroblasts (CREF) (mean of runs); 29.2 µM in the assay on Rat fibroblasts (CREF) (setting [4]); 32.1 µM in the assay on Rat fibroblasts (CREF) (setting [5]); 0.395 µM in the assay on PEG-3 [1] (setting [4]); more than 100 µM in the assay on PEG-3 [1] (setting [5]); 27 µM with GAPDH (setting [4]). The IC50 in the assay with GAPDH (setting [5]) was found to be 35 µM. Further, the IC50 entry (in assay [2]; at PEG-3 [3]) was “inactive” each time.
Take `CC(=O)OC1CC[C@]2(C#N)[C@H]3CC[C@]4(C)[C@H](C5C=CC(=O)O5)CCC4(O)C3CCC2(O)C1` (stereo partly drawn): the IC50 is > 100 µM (inactive) in the assay with Rat fibroblasts (CREF) (mean of runs); more than 100 µM in the assay with Rat fibroblasts (CREF) (setting [4]); more than 100 µM in the assay with Rat fibroblasts (CREF) (setting [5]); 9.87 µM in the assay on PEG-3 [1] (setting [4]); 11 µM in the assay on PEG-3 [1] (setting [5]); 10.1 µM in assay [2]. The IC50 in the assay on GAPDH (setting [4]) was 3.88 µM; with GAPDH (setting [5]), 16.4 µM; on PEG-3 [3] it was 10.4 µM.
On to `O=C(Nc1ccccc1)c1nc[nH]c1C(=O)NCCCCCCNC(=O)c1[nH]cnc1C(=O)Nc1ccccc1`, for which the IC50 with Rat fibroblasts (CREF) (mean of runs) was > 100 µM (inactive); in the assay on Rat fibroblasts (CREF) (setting [4]) it was more than 100 µM; in the assay with Rat fibroblasts (CREF) (setting [5]), more than 100 µM; in the assay on PEG-3 [1] (setting [4]), 2.4 µM; with PEG-3 [1] (setting [5]) it was more than 100 µM; with GAPDH (setting [4]) it was more than 100 µM. This compound also displayed an IC50 with GAPDH (setting [5]) of 16 µM. The IC50 entry (in assay [2]; on PEG-3 [3]) was “inactive” throughout.
Consider `O=C(N/N=C/c1c(O)ccc2ccccc12)c1ccc(CO)nc1`, for which the IC50 with Rat fibroblasts (CREF) (mean of runs) is 41.7 µM; in the assay with Rat fibroblasts (CREF) (setting [4]), 31 µM; in the assay with Rat fibroblasts (CREF) (setting [5]), 52.5 µM; with PEG-3 [1] (setting [4]), 3.98 µM; in the assay with PEG-3 [1] (setting [5]) it was 2.72 µM; in assay [2], > 100 µM (inactive). Besides, the IC50 was more than 100 µM in the assay with GAPDH (setting [4]), more than 100 µM in the assay with GAPDH (setting [5]) and 3.35 µM on PEG-3 [3].
In the case of `O=C(O)c1ccc(N/N=C/c2ccc3c(c2)OCO3)cc1`, the IC50 in the assay with Rat fibroblasts (CREF) (mean of runs) is 52.3 µM (inactive); in the assay on Rat fibroblasts (CREF) (setting [4]) it was 57.5 µM; in the assay on Rat fibroblasts (CREF) (setting [5]) it was 47.1 µM; in the assay on PEG-3 [1] (setting [4]), 1.24 µM; in the assay on PEG-3 [1] (setting [5]), 1.89 µM; in assay [2], 2.02 µM. Also, the IC50 is 1.37 µM in the assay on GAPDH (setting [4]), 2.67 µM in the assay with GAPDH (setting [5]) and 1.56 µM at PEG-3 [3].
Turning to `CC(=O)c1ccc(-c2cnc3c(NC=O)cc(-c4ccccc4Oc4ccccc4)cn23)cc1`, the IC50 is 54.5 µM (inactive) in the assay with Rat fibroblasts (CREF) (mean of runs); more than 100 µM in the assay on Rat fibroblasts (CREF) (setting [4]); 8.93 µM in the assay on Rat fibroblasts (CREF) (setting [5]); 5.46 µM in the assay on PEG-3 [1] (setting [4]); 8.94 µM with PEG-3 [1] (setting [5]); 91.1 µM in the assay on GAPDH (setting [4]). Further, the results for the IC50 in the assay with GAPDH (setting [5]) and at PEG-3 [3] were more than 100 µM and 7.2 µM, respectively. Further, the IC50 result in assay [2] is “inactive”.
For the compound `O=C(/C=C/c1ccc(Cl)c([N+](=O)[O-])c1)c1ccc(O)cc1`, the IC50 in the assay with Rat fibroblasts (CREF) (mean of runs) was 26.5 µM; with Rat fibroblasts (CREF) (setting [4]), 29.7 µM; in the assay on Rat fibroblasts (CREF) (setting [5]), 23.2 µM; in the assay on PEG-3 [1] (setting [4]), 8.19 µM; in the assay with PEG-3 [1] (setting [5]), 4.5 µM; in assay [2] it was 16.6 µM. Moreover, the IC50 with GAPDH (setting [4]) is 17.9 µM; in the assay on GAPDH (setting [5]), 15.3 µM; on PEG-3 [3] it was 6.34 µM.
`O=C(Nc1ccccc1C(=O)Nc1nnc(C(F)(F)F)s1)c1ccccc1`: the IC50 in the assay on Rat fibroblasts (CREF) (mean of runs) is > 100 µM (inactive); in the assay with Rat fibroblasts (CREF) (setting [4]), more than 100 µM; in the assay with Rat fibroblasts (CREF) (setting [5]) it was more than 100 µM; in the assay on PEG-3 [1] (setting [4]) it was 7.01 µM; with PEG-3 [1] (setting [5]), more than 100 µM; in assay [2] it was 7.97 µM. The IC50 in the assay on GAPDH (setting [4]) came to 2.28 µM; in the assay on GAPDH (setting [5]), 13.7 µM. For the same compound, at PEG-3 [3], the IC50 result is “inactive”.
As to `COc1ccc(Nc2ncnc3ccc(Br)cc23)c(OC)c1`, the IC50 was > 100 µM (inactive) in the assay on Rat fibroblasts (CREF) (mean of runs); more than 100 µM in the assay on Rat fibroblasts (CREF) (setting [4]); more than 100 µM with Rat fibroblasts (CREF) (setting [5]); 0.293 µM in the assay with PEG-3 [1] (setting [4]); 0.246 µM with PEG-3 [1] (setting [5]); 0.974 µM in assay [2]. Further, the IC50 with GAPDH (setting [4]) was 0.864 µM; with GAPDH (setting [5]), 1.08 µM; at PEG-3 [3], 0.27 µM.
As for `O=C(N/N=C/c1ccc(Cl)c([N+](=O)[O-])c1)c1cc(-c2ccc3c4c(cccc24)CC3)n[nH]1`, the IC50 in the assay with Rat fibroblasts (CREF) (mean of runs) was > 100 µM (inactive); in the assay with Rat fibroblasts (CREF) (setting [4]) it was more than 100 µM; with Rat fibroblasts (CREF) (setting [5]), more than 100 µM; with PEG-3 [1] (setting [4]), 11.2 µM; with PEG-3 [1] (setting [5]), 5.1 µM; in assay [2], 23 µM. Moreover, the results for the IC50 with GAPDH (setting [4]), in the assay with GAPDH (setting [5]) and on PEG-3 [3] were 22.8 µM, 23.2 µM and 8.14 µM, respectively.
Take `CN(O)C(=S)c1ccccc1`: the IC50 is > 100 µM (inactive) with Rat fibroblasts (CREF) (mean of runs); more than 100 µM with Rat fibroblasts (CREF) (setting [4]); more than 100 µM with Rat fibroblasts (CREF) (setting [5]); 10.3 µM in the assay on PEG-3 [1] (setting [4]); 42.5 µM with PEG-3 [1] (setting [5]); > 100 µM (inactive) in assay [2]. The IC50 with GAPDH (setting [4]) and with GAPDH (setting [5]) was more than 100 µM each time. Also, the IC50 result at PEG-3 [3] is “inactive”.
Consider `Nc1nonc1-n1nnc(C(=O)N/N=C/c2cc(Br)ccc2O)c1CNc1ccccc1`, for which the IC50 is 77.8 µM (inactive) with Rat fibroblasts (CREF) (mean of runs); more than 100 µM in the assay with Rat fibroblasts (CREF) (setting [4]); 55.7 µM with Rat fibroblasts (CREF) (setting [5]); 4.19 µM with PEG-3 [1] (setting [4]); 17.6 µM in the assay on PEG-3 [1] (setting [5]); 45.2 µM with GAPDH (setting [4]). Also, the results for the IC50 in the assay with GAPDH (setting [5]) and at PEG-3 [3] were 59.3 µM and 10.9 µM, respectively. For the same compound, the IC50 result in assay [2] was “inactive”.
Consider `COc1cc2nc(CN3CC=C(c4ccccc4)CC3)[nH]c(=O)c2cc1OC`, for which the IC50 is > 100 µM (inactive) with Rat fibroblasts (CREF) (mean of runs); more than 100 µM with Rat fibroblasts (CREF) (setting [4]); more than 100 µM in the assay on Rat fibroblasts (CREF) (setting [5]); 7.71 µM with PEG-3 [1] (setting [4]); 5.22 µM in the assay on PEG-3 [1] (setting [5]); 60.9 µM in the assay on GAPDH (setting [4]). The IC50 with GAPDH (setting [5]) was 62.2 µM; at PEG-3 [3], 6.47 µM. Further, the IC50 entry in assay [2] is “inactive”.
Turning to `Clc1ccccc1/C=C/c1nc(-c2ccccn2)no1`, the IC50 was 28 µM in the assay on Rat fibroblasts (CREF) (mean of runs); 25.7 µM in the assay on Rat fibroblasts (CREF) (setting [4]); 30.3 µM in the assay on Rat fibroblasts (CREF) (setting [5]); 3.68 µM with PEG-3 [1] (setting [4]); more than 100 µM in the assay on PEG-3 [1] (setting [5]); 1.86 µM in assay [2]. The IC50 was 3.51 µM in the assay on GAPDH (setting [4]) and less than 0.2 µM in the assay with GAPDH (setting [5]). Further, the IC50 entry on PEG-3 [3] was “inactive”.
`CN(C)c1ccc(C=c2c3ccccc3n3c2cc(-c2ccccc2)[n+]3C)cc1`: the IC50 is 29.4 µM in the assay on Rat fibroblasts (CREF) (mean of runs); 27.5 µM in the assay with Rat fibroblasts (CREF) (setting [4]); 31.3 µM in the assay on Rat fibroblasts (CREF) (setting [5]); 7.06 µM in the assay on PEG-3 [1] (setting [4]); 1.54 µM in the assay with PEG-3 [1] (setting [5]); 8.31 µM in assay [2]. The half-maximal inhibitory concentration (IC50) in the assay with GAPDH (setting [4]) is 9.4 µM; in the assay with GAPDH (setting [5]) it was 7.23 µM; at PEG-3 [3], 4.3 µM.
For `COc1cc(C(=O)N/N=C(\c2ccccc2)c2ccccn2)cc(OC)c1OC`, the IC50 was 58.4 µM (inactive) in the assay on Rat fibroblasts (CREF) (mean of runs); 44.9 µM in the assay on Rat fibroblasts (CREF) (setting [4]); 72 µM in the assay with Rat fibroblasts (CREF) (setting [5]); 3.09 µM in the assay with PEG-3 [1] (setting [4]); 2.71 µM in the assay on PEG-3 [1] (setting [5]); > 100 µM (inactive) in assay [2]. Further, the IC50 with GAPDH (setting [4]) was more than 100 µM; with GAPDH (setting [5]) it was more than 100 µM; at PEG-3 [3], 2.9 µM.
Take `CCCCC(=O)NC(c1ccc(OC)cc1)c1ccc2cccnc2c1O` (stereo not drawn): the IC50 in the assay with Rat fibroblasts (CREF) (mean of runs) was > 100 µM (inactive); with Rat fibroblasts (CREF) (setting [4]), more than 100 µM; with Rat fibroblasts (CREF) (setting [5]) it was more than 100 µM; in the assay on PEG-3 [1] (setting [4]), 8.04 µM; with PEG-3 [1] (setting [5]) it was 7.99 µM; in assay [2] it was > 100 µM (inactive). Besides, the IC50 was more than 100 µM in the assay with GAPDH (setting [4]), more than 100 µM in the assay on GAPDH (setting [5]) and 8.02 µM on PEG-3 [3].

The IC50 is the point on the concentration scale where inhibition reaches its midpoint.
